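Following 48 hours of exposure in 96-well plates, responses at five concentrations were used to interpolate endpoints linearly. Abbreviation: GI50, concentration required for 50% inhibition of growth. TGI denotes the concentration required for complete inhibition of growth.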
Tests used:
Assay in all cases: DTP human tumour cell line panel, 48 h
ACHN renal = system: ACHN renal
NCI-H522 lung = system: NCI-H522 lung
SK-MEL-5 melanoma = system: SK-MEL-5 melanoma
UO-31 renal = system: UO-31 renal
NCI-H460 lung = system: NCI-H460 lung
HT29 colon = system: HT29 colon
LOX IMVI melanoma = system: LOX IMVI melanoma
KM12 colon = system: KM12 colon
HOP-62 NSCLC = system: HOP-62 NSCLC
HCC-2998 colon = system: HCC-2998 colon
OVCAR-3 ovarian = system: OVCAR-3 ovarian
UACC-257 melanoma = system: UACC-257 melanoma
SW-620 colon = system: SW-620 colon
SR leukemia = system: SR leukemia
HL-60(TB) leukemia = system: HL-60(TB) leukemia
RXF 393 renal = system: RXF 393 renal
HCT-15 colon = system: HCT-15 colon
MALME-3M melanoma = system: MALME-3M melanoma
HS 578T breast = system: HS 578T breast
U251 CNS = system: U251 CNS
MOLT-4 leukemia = system: MOLT-4 leukemia
MDA-MB-231 breast = system: MDA-MB-231 breast
OVCAR-8 ovarian = system: OVCAR-8 ovarian
786-0 renal = system: 786-0 renal
IGROV1 ovarian = system: IGROV1 ovarian
HOP-92 NSCLC = system: HOP-92 NSCLC
CCRF-CEM leukemia = system: CCRF-CEM leukemia
MCF7 breast = system: MCF7 breast
SN12C renal = system: SN12C renal
OVCAR-5 ovarian = system: OVCAR-5 ovarian
A549 NSCLC = system: A549 NSCLC
SK-MEL-2 melanoma = system: SK-MEL-2 melanoma
CAKI-1 renal = system: CAKI-1 renal
A498 renal = system: A498 renal
SF-295 CNS = system: SF-295 CNS
EKVX NSCLC = system: EKVX NSCLC
SK-OV-3 ovarian = system: SK-OV-3 ovarian
HCT-116 colon = system: HCT-116 colon
NCI-H226 lung = system: NCI-H226 lung
SNB-75 CNS = system: SNB-75 CNS
SNB-19 CNS = system: SNB-19 CNS
BT-549 breast = system: BT-549 breast
COLO 205 colon = system: COLO 205 colon
NCI-H23 lung = system: NCI-H23 lung
NCI/ADR-RES ovarian = system: NCI/ADR-RES ovarian
UACC-62 melanoma = system: UACC-62 melanoma
RPMI-8226 leukemia = system: RPMI-8226 leukemia
SF-539 CNS = system: SF-539 CNS
K-562 leukemia = system: K-562 leukemia
PC-3 prostate = system: PC-3 prostate
OVCAR-4 ovarian = system: OVCAR-4 ovarian
TK-10 renal = system: TK-10 renal
T-47D breast = system: T-47D breast
SF-268 CNS = system: SF-268 CNS

## COc1cc2ncn(-c3cc(O[C@H](C)c4ccccc4Cl)c(C(N)=O)s3)c2cc1OC
ACHN renal
  GI50: 1040 nM
  TGI: > 25000 nM
NCI-H522 lung
  GI50: 6.56 nM
  TGI: 2840 nM
SK-MEL-5 melanoma
  GI50: 9.12 nM
  TGI: 1080 nM
UO-31 renal
  GI50: 482 nM
  TGI: 12100 nM
NCI-H460 lung
  GI50: 9.55 nM
  TGI: 1240 nM
HT29 colon
  GI50: 4.32 nM
  TGI: 4260 nM
LOX IMVI melanoma
  GI50: 10.5 nM
  TGI: 4370 nM
KM12 colon
  GI50: 7.28 nM
  TGI: 3860 nM
HOP-62 NSCLC
  GI50: 15.8 nM
  TGI: > 25000 nM
HCC-2998 colon
  GI50: 14.8 nM
  TGI: 6180 nM
OVCAR-3 ovarian
  GI50: 6.64 nM
  TGI: 2150 nM
UACC-257 melanoma
  GI50: 2930 nM
  TGI: 15400 nM
SW-620 colon
  GI50: 5.5 nM
  TGI: 5570 nM
SR leukemia
  GI50: 7.92 nM
  TGI: > 6400 nM
HL-60(TB) leukemia
  GI50: 6.81 nM
  TGI: 3890 nM
RXF 393 renal
  GI50: 9.47 nM
  TGI: 3530 nM
HCT-15 colon
  GI50: 10.7 nM
  TGI: > 25000 nM
MALME-3M melanoma
  GI50: 1710 nM
  TGI: 12300 nM
HS 578T breast
  GI50: 65.2 nM
  TGI: 804 nM
U251 CNS
  GI50: 16.1 nM
  TGI: > 25000 nM
MOLT-4 leukemia
  GI50: 9.79 nM
  TGI: 3760 nM
MDA-MB-231 breast
  GI50: 21 nM
  TGI: > 25000 nM
OVCAR-8 ovarian
  GI50: 11.4 nM
  TGI: 11800 nM
786-0 renal
  GI50: 41.2 nM
  TGI: 3110 nM
IGROV1 ovarian
  GI50: 19.7 nM
  TGI: 12900 nM
HOP-92 NSCLC
  GI50: 489 nM
  TGI: 7470 nM
CCRF-CEM leukemia
  GI50: 2.5 nM
  TGI: 13100 nM
MCF7 breast
  GI50: 4.31 nM
  TGI: 5600 nM
SN12C renal
  GI50: 69.2 nM
  TGI: > 21500 nM
OVCAR-5 ovarian
  GI50: 13.9 nM
  TGI: > 23800 nM
A549 NSCLC
  GI50: 14 nM
  TGI: > 14400 nM
SK-MEL-2 melanoma
  GI50: 6.79 nM
  TGI: 5020 nM
CAKI-1 renal
  GI50: 99.9 nM
  TGI: 20800 nM
A498 renal
  GI50: 12.1 nM
  TGI: 194 nM
SF-295 CNS
  GI50: 12.7 nM
  TGI: > 25000 nM
EKVX NSCLC
  GI50: 87.2 nM
  TGI: > 25000 nM
SK-OV-3 ovarian
  GI50: 9.7 nM
  TGI: 12700 nM
HCT-116 colon
  GI50: 10.2 nM
  TGI: 6440 nM
NCI-H226 lung
  GI50: 228 nM
  TGI: 6990 nM
SNB-75 CNS
  GI50: 23.8 nM
  TGI: 3590 nM
SNB-19 CNS
  GI50: 22.5 nM
  TGI: > 25000 nM
BT-549 breast
  GI50: 88.8 nM
  TGI: 4440 nM
COLO 205 colon
  GI50: 5.44 nM
  TGI: 4580 nM
NCI-H23 lung
  GI50: 10 nM
  TGI: 4390 nM
NCI/ADR-RES ovarian
  GI50: 8.12 nM
  TGI: 8720 nM
UACC-62 melanoma
  GI50: 154 nM
  TGI: 7430 nM
RPMI-8226 leukemia
  GI50: 10.2 nM
  TGI: 3990 nM
SF-539 CNS
  GI50: 10.9 nM
  TGI: 2740 nM
K-562 leukemia
  GI50: 8.74 nM
  TGI: > 25000 nM
PC-3 prostate
  GI50: 14.1 nM
  TGI: > 25000 nM
OVCAR-4 ovarian
  GI50: 3670 nM
  TGI: > 25000 nM
TK-10 renal
  GI50: 414 nM
  TGI: 4450 nM
T-47D breast
  GI50: 146 nM
  TGI: 7760 nM
SF-268 CNS
  GI50: 16 nM
  TGI: 20100 nM
